Source: the NIST ThermoML archive (doi:10.1021/acs.jced.8b00433)
Numbers after ± are expanded uncertainties.

Test: xn = mol fraction of the nth substance listed
Settings: Gas, Buoyancy - hydrostatic balance with magnetic suspension - one sinker

C [methane] + O=C=O
Settings | mass density [kg/m3]
333.12 K, 18006 kPa, x2 = 0.6015 | 310.346 ± 2.1
333.13 K, 5006 kPa, x2 = 0.8988 | 88.521 ± 0.4
333.13 K, 5996 kPa, x2 = 0.2017 | 50.919 ± 0.3
333.13 K, 7000 kPa, x2 = 0.0998 | 51.598 ± 0.33
333.13 K, 10993 kPa, x2 = 0.8988 | 274.201 ± 2.2
333.13 K, 12000 kPa, x2 = 0.6015 | 189.959 ± 1.2
333.13 K, 14996 kPa, x2 = 0.3997 | 186.621 ± 1.1
333.14 K, 4996 kPa, x2 = 0.2017 | 41.851 ± 0.26
333.14 K, 7998 kPa, x2 = 0.6015 | 114.282 ± 0.6
333.14 K, 10995 kPa, x2 = 0.6015 | 169.869 ± 0.99
333.14 K, 11002 kPa, x2 = 0.3997 | 130.586 ± 0.75
333.14 K, 11997 kPa, x2 = 0.8988 | 319.541 ± 2.8
333.14 K, 14998 kPa, x2 = 0.7985 | 360.976 ± 2.7
333.14 K, 18001 kPa, x2 = 0.0998 | 140.51 ± 0.95
333.15 K, 6001 kPa, x2 = 0.0998 | 43.781 ± 0.28
333.15 K, 8994 kPa, x2 = 0.6015 | 131.934 ± 0.7
333.15 K, 11999 kPa, x2 = 0.0998 | 92.187 ± 0.6
333.15 K, 14994 kPa, x2 = 0.2017 | 138.03 ± 0.88
333.15 K, 14999 kPa, x2 = 0.6015 | 251.317 ± 1.7
333.16 K, 7002 kPa, x2 = 0.6015 | 97.409 ± 0.51
333.16 K, 11003 kPa, x2 = 0.0998 | 83.984 ± 0.55
333.16 K, 12001 kPa, x2 = 0.2017 | 108.442 ± 0.67
333.16 K, 18000 kPa, x2 = 0.7985 | 447.149 ± 3.2
333.16 K, 18001 kPa, x2 = 0.3997 | 227.522 ± 1.4
333.17 K, 4004 kPa, x2 = 0.3997 | 41.983 ± 0.23
333.17 K, 4007 kPa, x2 = 0.8988 | 67.864 ± 0.3
333.17 K, 5002 kPa, x2 = 0.7985 | 80.565 ± 0.36
333.17 K, 7997 kPa, x2 = 0.8988 | 164.576 ± 0.89
333.18 K, 9007 kPa, x2 = 0.7985 | 170.905 ± 0.94
333.18 K, 9999 kPa, x2 = 0.0998 | 75.751 ± 0.49
333.18 K, 12003 kPa, x2 = 0.7985 | 260.729 ± 1.8
333.19 K, 7001 kPa, x2 = 0.8988 | 136.146 ± 0.71
333.19 K, 8000 kPa, x2 = 0.0998 | 59.549 ± 0.39
333.19 K, 8996 kPa, x2 = 0.8988 | 196.344 ± 1.3
333.19 K, 8999 kPa, x2 = 0.0998 | 67.601 ± 0.44
333.19 K, 9999 kPa, x2 = 0.7985 | 198.595 ± 1.2
333.19 K, 10001 kPa, x2 = 0.6015 | 150.602 ± 0.84
333.19 K, 11002 kPa, x2 = 0.7985 | 228.687 ± 1.5
333.2 K, 5991 kPa, x2 = 0.7985 | 100.196 ± 0.47
333.2 K, 6008 kPa, x2 = 0.3997 | 65.434 ± 0.34
333.2 K, 7994 kPa, x2 = 0.7985 | 145.123 ± 0.76
333.2 K, 8002 kPa, x2 = 0.2017 | 69.464 ± 0.42
333.21 K, 9996 kPa, x2 = 0.8988 | 232.812 ± 1.6
333.21 K, 18000 kPa, x2 = 0.8988 | 552.634 ± 4.4
333.22 K, 6999 kPa, x2 = 0.2017 | 60.167 ± 0.36
333.22 K, 7005 kPa, x2 = 0.7985 | 121.973 ± 0.6
333.22 K, 7995 kPa, x2 = 0.3997 | 90.268 ± 0.49
333.24 K, 6001 kPa, x2 = 0.8988 | 110.997 ± 0.54
353.02 K, 2999 kPa, x2 = 0.0998 | 19.722 ± 0.16
353.03 K, 10001 kPa, x2 = 0.6015 | 135.164 ± 0.69
353.05 K, 9004 kPa, x2 = 0.6015 | 119.448 ± 0.62
353.08 K, 12003 kPa, x2 = 0.8988 | 250.219 ± 1.6
353.08 K, 14998 kPa, x2 = 0.2017 | 125.022 ± 0.77
353.09 K, 11999 kPa, x2 = 0.6015 | 167.978 ± 0.89
353.09 K, 17992 kPa, x2 = 0.6015 | 269.799 ± 1.6
353.1 K, 8995 kPa, x2 = 0.8988 | 165.756 ± 0.91
353.1 K, 17997 kPa, x2 = 0.8988 | 437.7 ± 3.2
353.11 K, 12000 kPa, x2 = 0.3997 | 129.551 ± 0.71
353.11 K, 18006 kPa, x2 = 0.7985 | 362.285 ± 2.4
353.12 K, 5997 kPa, x2 = 0.8988 | 99.468 ± 0.47
353.12 K, 6004 kPa, x2 = 0.6015 | 74.991 ± 0.37
353.12 K, 18000 kPa, x2 = 0.3997 | 201.731 ± 1.2
353.13 K, 4000 kPa, x2 = 0.8988 | 61.9 ± 0.27
353.13 K, 6004 kPa, x2 = 0.3997 | 60.111 ± 0.32
353.13 K, 14997 kPa, x2 = 0.3997 | 165.894 ± 0.96
353.14 K, 9003 kPa, x2 = 0.0998 | 62.172 ± 0.4
353.14 K, 14999 kPa, x2 = 0.6015 | 219.076 ± 1.3
353.15 K, 6003 kPa, x2 = 0.7985 | 90.263 ± 0.42
353.15 K, 14995 kPa, x2 = 0.0998 | 106.161 ± 0.7
353.15 K, 14999 kPa, x2 = 0.8988 | 346.055 ± 2.4
353.16 K, 3001 kPa, x2 = 0.6015 | 35.135 ± 0.18
353.16 K, 15004 kPa, x2 = 0.7985 | 288.885 ± 1.8
353.17 K, 9004 kPa, x2 = 0.3997 | 93.855 ± 0.49
353.18 K, 3996 kPa, x2 = 0.7985 | 56.892 ± 0.27
353.18 K, 4002 kPa, x2 = 0.2017 | 30.584 ± 0.19
353.18 K, 4004 kPa, x2 = 0.3997 | 38.873 ± 0.2
353.18 K, 11994 kPa, x2 = 0.7985 | 214.517 ± 1.2
353.22 K, 8998 kPa, x2 = 0.7985 | 147.521 ± 0.75
353.22 K, 17999 kPa, x2 = 0.0998 | 127.527 ± 0.85
353.23 K, 6000 kPa, x2 = 0.0998 | 40.53 ± 0.26
353.24 K, 11994 kPa, x2 = 0.0998 | 84.225 ± 0.55
353.26 K, 6007 kPa, x2 = 0.2017 | 46.942 ± 0.28
353.27 K, 9000 kPa, x2 = 0.2017 | 72.326 ± 0.43
353.28 K, 12001 kPa, x2 = 0.2017 | 98.585 ± 0.6
353.37 K, 17994 kPa, x2 = 0.2017 | 150.552 ± 0.93
